Assay results: patent US20030144347A1, “Method for treating autoimmune disease” (priority 2001, published 2003)

What was measured:
[1] = system: rodent models of epilepsy; conditions: several rodent models of epilepsy; cited from earlier work
[2] = system: patient suffering from multiple sclerosis; test: Case reports: patients suffering from multiple sclerosis treated with topiramate; type: in vivo, human
Experimental: A patient suffering from multiple sclerosis was administered 15 mg per day of topiramate. The dosage was increased after 15 days to 30 mg per day. At 15 mg, the patient's involuntary stretch rigid response stopped and the patient was able to get out of bed without falling backward when their feet touched the floor for the first time in nine years.
The patient previously took trazadone 100 mg at bedtime, clonazepan 1 mg three times a day, citalapram 40 mg each morning, gabapentrin 600 mg four times a day, and synthroid 25 mcg per day for two years. They had refused steroids and interferon because of side effects.
The Topamax was increased to 15 mg at bedtime and they reported “no bad bladder accidents” and that their leg and foot cramps had disappeared. […] They were discharged on Topamax 15 mg at bedtime along with previous medications. The patient was much improved medically and emotionally.
The patient returned four weeks later walking with a cane, having worked “10 to 14 hours per day and exhausted from my move with little sleep during the past month”. They reported “insatiable itching all over my body wherever my clothes touch the skin” which […] unsuccessfully tried to treat with cetirizine. […] said […] felt “dizzy, weak, Charlie horses in arches of feet and toes, unable to stand for more than 10 minutes before starting to have gait problems, problems sleeping, having trouble mentally and urine leaking”. […] working diagnoses are Axis I Bipolar disorder, not otherwise specified Axis III multiple sclerosis. […]

[3] = system: patient suffering from pemphigus vulgaris; test: Case reports: patients suffering from pemphigus vulgaris; type: in vivo, human
Experimental: A patient suffering from pemphigus vulgaris and taking 15 mg of chobetesol propionate per day began taking 15 mg per day of topiramate. The dose was increased to 45 mg in divided dosages over a three week period. […] This occurred and was maintained even after chobetesol propionate was reduced to 5 mg every 3 days, at 8 weeks from the initial dose of 15 mg per day. […] A patient suffering from permphigus vulgaris and taking 50 mg twice a day of immuran and 20 mg per day of prednisone began taking 15 mg per day of topiramate. The dose was increased to 45 mg per day in divided dosages over a three-week period. […] This occurred in spite of reducing the immuran to 50 mg and prednisone to 10 mg each day, which were their lowest dosages in two years. […] These improvements continued to be maintained at 20 weeks and Ig antibody was zero.

[4] = system: patient with eosinophilic gastroenteritis; test: Case report: patient with recurrent eosinophilic gastroenteritis; type: in vivo, human; conditions: Example 20; 7.5 mg every three days then 7.5 mg every other day; withdrawn from prednisone
Experimental: A patient presented depressed related to a 15 pound weight gain following a recurrent of eosinophilic gastroenteritis treated with 20 mg of prednisone. This was their third bout in two years, all confirmed by a stomach biopsy. Each recurrence began between four and five months after being withdrawn from steroids, which had caused physical side effects and suspiciousness. A trial of Topamax 7.5 mg every three days and then 7.5 mg every other day was begun.

[5] = Example 18, 15 mg at bedtime, two days later

CC1(C)O[C@@H]2[C@@H](CO[C@@]3(COS(N)(=O)=O)OC(C)(C)O[C@@H]23)O1 [topiramate, 2,3:4,5-bis-O-(1-methylethylidence)-β-D-fructopyranose sulfamate]
seizures [1]: effectively block seizures
duration of beneficial effect ([2]; Example 1, 12.5 mg per day): more than 10 months
involuntary stretch rigid response ([2]; Example 1, 15 mg per day): stopped
spastic rigid response ([2]; Example 1, dose lowered to 12.5 mg per day): no longer present
involuntary stretch rigid response ([2]; Example 1, higher dose of 30 mg per day): reversed this benefit
walking and back pain ([2]; Example 18, 7.5 mg at bedtime for three days): walking better and reported reduced back pain
leg and foot cramps ([2]; Example 18, 15 mg at bedtime): disappeared
urinary incontinence and back pain [2, 5]: no urinary incontinence or back pain
walking [2, 5]: walking without a cane
patient-reported symptoms ([2]; Example 18, 30 mg at bedtime, seen eight days later): no dizziness, weakness, urinary incontinence and decreased gait problems, itching and pain
time at which improvement continued to be maintained ([3]; Example 13): 12 weeks
lesions ([3]; Example 13, 45 mg in divided dosages, chobetesol propionate reduced): began to shrink, dried up and formed a scab, which came off leaving normal skin
time at which improvements continued to be maintained ([3]; Example 14): 20 weeks
lesions ([3]; Example 14, 30 mg twice a day): second lesion healing
lesions ([3]; Example 14, 45 mg per day, at three weeks): one lesion was shrinking
lesions ([3]; Example 14, 45 mg per day, by four weeks, immuran and prednisone reduced): healed and the second lesion was beginning to shrink
Ig antibody ([3]; Example 14, at 20 weeks): zero
time without recurrence of symptoms [4]: 19 months
